We go through 4 compounds from PMC3128661 (Bioorganic & medicinal chemistry letters, 2011).

One test concerns VRE. The test is described as follows: MIC determination in 96-well plates. The format is cell-based, E. faecium. The following applies: Enterococcus, read-out: MIC VRE.
The subject of another test is E. coli (J-53). The note with it: ref [4],[7]; cited from earlier work.
In the next test the test system is Gram+ bacteria. The following applies: ref [4],[7]; cited from earlier work.

The MIC is the lowest concentration that inhibits growth of the organism. As for `CCc1cc(Nc2cc3c(ncn3CCCCN3CCOCC3)c(=O)[nH]2)ccc1C` [Compound 21b], the minimal inhibitory concentration (MIC) with VRE is above 80 µg/mL.

As to `CCc1cc(Nc2cc3c(ncn3CCCCOC)c(=O)[nH]2)ccc1C` [Compound 19b], the minimal inhibitory concentration (MIC) in the test with VRE was above 80 µg/mL.

With `CCc1cc(Nc2nc(O)c3ncn(CCCCO)c3n2)ccc1C` [Compound 2b], the MIC in the test on VRE was above 80 µg/mL. For the compound `CCc1cc(Nc2cc(=O)n(CCCCO)c(=O)[nH]2)ccc1C` [Compound 1, HB-EMAU], the “activity against the Gram- bacterium E. coli” value with E. coli (J-53) was “inactive”. Moreover, the “MIC values against various organisms” value in the test on Gram+ bacteria was 2.5 to 5 µg/mL.
